From the supplement of paper PMC10307832

Legend:
Experiment in all cases: relative viability (nuclei count vs DMSO), 5 days (fraction); higher = more cells survive
[1] = compound: C=C(c1ccc(C(=O)O)cc1)c1cc2c(cc1C)C(C)(C)CCC2(C)C [Bexarotene] + NC(=O)Nc1cc(-c2cccc(F)c2)sc1C(=O)N[C@H]1CCCNC1 [AZD7762] (partner 0.2 µM)
Outline: (§1)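 Lung cancer cell lines, seeded in 1536-well plates, were treated the following day by pin tool with a single drug or with five library-drug doses (not always all listed) in √10 steps on top of a fixed anchor-drug dose. Cells were fixed and nuclei stained in one step after 5 days, and nuclei were counted. Relative viability is the nuclei count for treated wells divided by that for vehicle wells, reported as medians of duplicate plates.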

[2] = compound: C=C(c1ccc(C(=O)O)cc1)c1cc2c(cc1C)C(C)(C)CCC2(C)C [Bexarotene] + Nc1nc2[nH]cc(CCc3ccc(C(=O)N[C@@H](CCC(=O)O)C(=O)O)cc3)c2c(=O)[nH]1 [Pemetrexed] (partner 0.2 µM)
Outline: as §1

[3] = compound: C=C(c1ccc(C(=O)O)cc1)c1cc2c(cc1C)C(C)(C)CCC2(C)C [Bexarotene] + COc1cc2c(Oc3ccc(NC(=O)C4(C(=O)Nc5ccc(F)cc5)CC4)cc3F)ccnc2cc1OCCCN1CCOCC1 [Foretinib] (partner 0.25 µM)
Outline: as §1

[4] = compound: C=C(c1ccc(C(=O)O)cc1)c1cc2c(cc1C)C(C)(C)CCC2(C)C [Bexarotene] + COc1cccc2cc(-c3nc([C@H]4CC[C@H](C(=O)O)CC4)n4ncnc(N)c34)[nH]c12 [OSI-027] (partner 0.5 µM)
Outline: as §1

| Cell Line | relative viability ([1]; first compound 0.08 µM) | relative viability ([1]; first compound 0.253 µM) | relative viability ([1]; first compound 0.8 µM) | relative viability ([1]; first compound 2.53 µM) | relative viability ([1]; first compound 8 µM) | relative viability ([2]; first compound 0.08 µM) | relative viability ([2]; first compound 0.253 µM) | relative viability ([2]; first compound 0.8 µM) | relative viability ([2]; first compound 2.53 µM) | relative viability ([2]; first compound 8 µM) | relative viability ([3]; first compound 0.08 µM) | relative viability ([3]; first compound 0.253 µM) | relative viability ([3]; first compound 0.8 µM) | relative viability ([3]; first compound 2.53 µM) | relative viability ([3]; first compound 8 µM) | relative viability ([4]; first compound 0.08 µM) | relative viability ([4]; first compound 0.253 µM) | relative viability ([4]; first compound 0.8 µM) | relative viability ([4]; first compound 2.53 µM) | relative viability ([4]; first compound 8 µM) |
| --- | --- | --- | --- | --- | --- | --- | --- | --- | --- | --- | --- | --- | --- | --- | --- | --- | --- | --- | --- | --- |
| HARA | 0.336 | 0.272 | 0.412 | 0.303 | 0.262 | 0.292 | 0.31 | 0.217 | 0.248 | 0.244 | 0.759 | 0.472 | 0.85 | 0.941 | 0.701 | 0.502 | 0.494 | 0.311 | 0.368 | 0.423 |
| NCI-H2126 | 1.07 | 0.971 | 0.916 | 0.994 | 1.02 | 0.822 | 0.679 | 0.621 | 0.742 | 0.636 | 0.971 | 1.2 | 1.1 | 1.22 | 1.07 | 0.675 | 0.71 | 0.742 | 0.74 | 0.683 |
| LXF-289 | 1.21 | 1.34 | 1.32 | 1.37 | 1.48 | 1.04 | 1.12 | 1.16 | 0.974 | 1.04 | 1.18 | 1.02 | 1.02 | 1.09 | 1.22 | 0.912 | 0.925 | 0.757 | 0.572 | 0.731 |
| NCI-H460 | 0.694 | 0.701 | 0.701 | 0.668 | 0.735 | 0.062 | 0.0605 | 0.058 | 0.0661 | 0.0586 | 1.1 | 0.99 | 0.976 | 1.02 | 1.01 | 0.844 | 0.727 | 0.704 | 0.701 | 0.618 |
| NCI-H1395 | 0.399 | 0.432 | 0.39 | 0.407 | 0.39 | 0.885 | 0.929 | 0.808 | 0.9 | 0.931 | 1.07 | 1.02 | 1.04 | 0.949 | 1.09 | 0.672 | 0.653 | 0.616 | 0.624 | 0.633 |
| NCI-H2170 | 0.877 | 0.796 | 0.812 | 0.775 | 0.735 | 0.265 | 0.272 | 0.254 | 0.258 | 0.27 | 1.03 | 1.03 | 0.983 | 0.922 | 0.977 | 0.699 | 0.757 | 0.636 | 0.683 | 0.604 |
